Results from patent US12409177B2, “FGFR inhibitors for the treatment of cancer” (BridGene Biosciences, Inc., priority 2019, dated 2025).
Like-named read-outs stand apart in the source and are kept apart here.

Legend:
FGFR4 = FGFR4 (Homo sapiens, UniProt P22455); assay: FGFR4 kinase inhibition (IC50); format: biochemical
FGFR1 = FGFR1 (Homo sapiens, UniProt P11362); assay: FGFR1 kinase inhibition (IC50); format: biochemical
FGFR3 = FGFR3 (Homo sapiens, UniProt P22607); assay: FGFR3 kinase inhibition (IC50); format: biochemical
Chain of FGFR3 (P22607 23-806): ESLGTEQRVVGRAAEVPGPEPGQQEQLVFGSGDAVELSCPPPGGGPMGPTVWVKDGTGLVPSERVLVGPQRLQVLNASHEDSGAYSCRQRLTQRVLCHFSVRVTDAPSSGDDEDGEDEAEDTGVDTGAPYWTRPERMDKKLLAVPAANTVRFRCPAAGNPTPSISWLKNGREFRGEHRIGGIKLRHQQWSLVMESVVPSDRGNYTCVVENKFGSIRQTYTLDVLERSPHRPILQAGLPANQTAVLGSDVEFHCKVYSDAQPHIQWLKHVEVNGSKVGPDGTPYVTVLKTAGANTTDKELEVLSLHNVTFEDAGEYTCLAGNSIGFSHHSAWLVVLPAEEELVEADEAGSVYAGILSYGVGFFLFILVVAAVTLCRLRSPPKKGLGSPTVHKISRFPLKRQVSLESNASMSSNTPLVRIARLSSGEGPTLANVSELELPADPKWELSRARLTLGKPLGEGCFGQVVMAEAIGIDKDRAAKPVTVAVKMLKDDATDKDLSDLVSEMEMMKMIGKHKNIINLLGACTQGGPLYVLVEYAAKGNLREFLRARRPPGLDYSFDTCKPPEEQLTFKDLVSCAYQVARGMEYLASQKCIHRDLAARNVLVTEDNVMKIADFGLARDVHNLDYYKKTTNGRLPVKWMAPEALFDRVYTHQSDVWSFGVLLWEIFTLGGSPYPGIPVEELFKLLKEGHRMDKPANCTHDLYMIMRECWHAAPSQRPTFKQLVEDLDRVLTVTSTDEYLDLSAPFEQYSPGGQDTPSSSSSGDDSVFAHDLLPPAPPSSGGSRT

Hepatocyte = assay: Mouse hepatocyte clearance; format: in vitro ADME; details: mouse hepatocytes; value ± SE
[1] = Solubility in 5% DMSO and 95% of (20% HPBC in PBS); format: physicochemical
Text: The inventive compound 1 improves the FGFR4-selective inhibitory effect.

Protein binding = format: in vitro ADME
[2] = Pharmacokinetics in mice (IP, IV, PO); format: in vivo; details: for clearance / half-life / Vd / bioavailability / AUC(0-inf) / AUC(0-t) / Cmax / MRT inf / MRT last / Tmax: in vivo, mouse; for Vd: read-out: Vss
Protocol: FIG. 2A is the pharmacokinetic data of compound 1 administered by intraperitoneal injection (IP) into mice at 10 mg/kg, according to some embodiments of the present disclosure;
FIG. 2B is the pharmacokinetic data of compound 1 administered by intravenous injection (IV) into mice at 1 mg/kg and per os (PO) at 5 mg/kg, according to some embodiments of the present disclosure;

Mouse plasma stability = format: in vitro ADME; details: value ± SE, read-out: Ms Plasma Stability t1/2 (SE)
MDCK permeability = format: in vitro ADME; details: dog
FGFR2 = FGFR2 (Homo sapiens, UniProt P21802); assay: FGFR2 kinase inhibition (IC50); format: biochemical
Chain of FGFR2 (P21802 22-821): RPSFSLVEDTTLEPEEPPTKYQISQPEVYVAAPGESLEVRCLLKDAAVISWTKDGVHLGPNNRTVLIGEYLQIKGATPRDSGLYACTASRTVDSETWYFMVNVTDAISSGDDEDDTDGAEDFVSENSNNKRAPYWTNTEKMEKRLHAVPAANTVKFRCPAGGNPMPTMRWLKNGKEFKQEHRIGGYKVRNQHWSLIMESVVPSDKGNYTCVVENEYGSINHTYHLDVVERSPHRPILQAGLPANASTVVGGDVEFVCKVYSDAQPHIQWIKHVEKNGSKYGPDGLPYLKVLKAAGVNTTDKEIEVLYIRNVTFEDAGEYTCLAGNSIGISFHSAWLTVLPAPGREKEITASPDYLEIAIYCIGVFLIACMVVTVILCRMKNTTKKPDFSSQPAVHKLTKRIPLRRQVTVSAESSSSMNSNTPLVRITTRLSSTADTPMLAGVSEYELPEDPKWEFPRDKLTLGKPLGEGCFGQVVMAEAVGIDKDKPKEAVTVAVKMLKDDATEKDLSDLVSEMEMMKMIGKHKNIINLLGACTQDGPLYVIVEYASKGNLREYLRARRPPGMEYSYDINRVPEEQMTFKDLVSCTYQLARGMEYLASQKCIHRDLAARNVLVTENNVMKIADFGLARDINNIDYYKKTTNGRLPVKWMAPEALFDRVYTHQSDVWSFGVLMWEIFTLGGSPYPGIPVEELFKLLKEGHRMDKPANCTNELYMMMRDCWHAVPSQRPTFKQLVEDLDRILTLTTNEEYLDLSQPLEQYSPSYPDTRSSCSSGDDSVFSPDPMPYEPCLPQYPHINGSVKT

[3] = Pharmacokinetics in mice (IP, IV, PO); details: mouse, in vivo, PO 100 mg/kg
[4] = read-out: FGFR4 inhibition (IC50 class)
[5] = read-out: FGFR1 Inhibition (IC50 class)
[6] = read-out: FGFR3 Inhibition (IC50 class)
[7] = read-out: FGFR2 Inhibition (IC50 class)

Chain of FGFR4 (P22455 22-802): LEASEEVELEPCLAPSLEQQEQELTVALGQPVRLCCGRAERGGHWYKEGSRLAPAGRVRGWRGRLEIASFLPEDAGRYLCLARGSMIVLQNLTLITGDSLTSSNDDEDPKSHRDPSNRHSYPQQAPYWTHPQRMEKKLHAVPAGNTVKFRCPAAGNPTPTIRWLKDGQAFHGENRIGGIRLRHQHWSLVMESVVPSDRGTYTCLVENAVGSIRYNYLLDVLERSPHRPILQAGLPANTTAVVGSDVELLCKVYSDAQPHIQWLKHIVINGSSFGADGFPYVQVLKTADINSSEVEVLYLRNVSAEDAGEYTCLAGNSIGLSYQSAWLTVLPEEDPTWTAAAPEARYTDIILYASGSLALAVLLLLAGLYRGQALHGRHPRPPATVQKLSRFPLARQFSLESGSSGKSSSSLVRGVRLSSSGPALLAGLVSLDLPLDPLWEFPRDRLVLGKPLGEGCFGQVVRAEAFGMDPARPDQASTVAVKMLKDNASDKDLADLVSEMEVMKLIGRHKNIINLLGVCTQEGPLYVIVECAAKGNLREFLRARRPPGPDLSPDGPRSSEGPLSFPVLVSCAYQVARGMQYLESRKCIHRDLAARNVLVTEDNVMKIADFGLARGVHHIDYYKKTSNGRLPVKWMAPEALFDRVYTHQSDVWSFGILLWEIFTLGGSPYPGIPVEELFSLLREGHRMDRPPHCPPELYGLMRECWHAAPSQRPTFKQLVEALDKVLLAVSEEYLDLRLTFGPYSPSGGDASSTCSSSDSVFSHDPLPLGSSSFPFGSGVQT
Chain of FGFR1 (P11362 22-822): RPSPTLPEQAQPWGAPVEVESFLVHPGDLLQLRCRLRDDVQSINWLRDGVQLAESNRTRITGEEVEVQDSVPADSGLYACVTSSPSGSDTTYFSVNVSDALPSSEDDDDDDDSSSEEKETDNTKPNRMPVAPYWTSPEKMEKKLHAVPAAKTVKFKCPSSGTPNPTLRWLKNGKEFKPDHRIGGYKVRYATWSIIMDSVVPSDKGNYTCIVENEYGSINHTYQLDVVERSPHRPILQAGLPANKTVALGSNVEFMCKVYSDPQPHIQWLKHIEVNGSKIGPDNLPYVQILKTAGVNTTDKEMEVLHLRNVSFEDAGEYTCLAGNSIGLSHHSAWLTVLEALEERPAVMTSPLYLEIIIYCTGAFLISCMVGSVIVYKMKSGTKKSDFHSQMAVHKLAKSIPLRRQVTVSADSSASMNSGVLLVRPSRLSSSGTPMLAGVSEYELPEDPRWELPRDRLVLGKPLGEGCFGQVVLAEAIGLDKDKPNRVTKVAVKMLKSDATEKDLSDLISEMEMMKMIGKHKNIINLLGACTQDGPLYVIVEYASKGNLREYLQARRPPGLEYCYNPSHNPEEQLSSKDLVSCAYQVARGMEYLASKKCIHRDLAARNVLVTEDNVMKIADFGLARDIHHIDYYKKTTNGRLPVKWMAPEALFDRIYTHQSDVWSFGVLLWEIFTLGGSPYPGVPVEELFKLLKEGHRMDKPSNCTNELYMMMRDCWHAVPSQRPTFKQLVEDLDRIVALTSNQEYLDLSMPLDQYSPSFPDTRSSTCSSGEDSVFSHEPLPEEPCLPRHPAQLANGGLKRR

C=CC(=O)N[C@H]1CCC[C@H]1Nc1cc(-c2cccnc2Nc2c(Cl)c(OC)cc(OC)c2Cl)ncn1 (single isomer, unassigned) [Compound 16, N-[cis-2-[[6-[2-(2,6-dichloro-3,5-dimethoxy-anilino)-3-pyridyl]pyrimidin-4-yl]amino]cyclopentyl]prop-2-enamide]
IC50 (FGFR4; [4]): 100 to 1000 nM

C=CC(=O)N[C@H]1COC[C@H]1Nc1cc(-c2cccnc2Nc2c(Cl)c(OC)cc(OC)c2Cl)ncn1 [Compound 1]
IC50 (FGFR1; [5]): ≥ 1000 nM
IC50 (FGFR1; read-out: IC50 towards FGFR1): 1280 nM
IC50 (FGFR3; [6]): ≥ 1000 nM
IC50 (FGFR3; read-out: IC50 towards FGFR3): 4440 nM
IC50 (FGFR4; [4]): 10 to 100 nM
IC50 (FGFR4; read-out: IC50 towards FGFR4): 20 nM
Hepatocyte Clin Ms (SE) (Hepatocyte): 43.6 ± 1.3 µL/min/1e6 cells
solubility [1]: much-improved solubility
fraction unbound (Protein binding): 0.08
clearance ([2]; intravenous, Table 2 summary): 26.7 mL/min/kg
half-life ([2]; intravenous, Table 2 summary): 31.2 min
Vd ([2]; intravenous, Table 2 summary): 0.88 L/kg
bioavailability ([2]; oral, Table 2 summary): 20.9%
AUC(0-inf) ([2]; mice, IP 10 mg/kg): 9610 ng·h/mL
AUC(0-t) ([2]; mice, IP 10 mg/kg): 9610 ng·h/mL
Cmax ([2]; mice, IP 10 mg/kg): 14900 ng/mL
MRT inf ([2]; mice, IP 10 mg/kg): 0.67 h
MRT last ([2]; mice, IP 10 mg/kg): 0.67 h
Tmax ([2]; mice, IP 10 mg/kg): 15 min
half-life ([2]; mice, IP 10 mg/kg): 169 min
AUC(0-inf) ([2]; mice, IV 1 mg/kg): 621 ng·h/mL
AUC(0-t) ([2]; mice, IV 1 mg/kg): 618 ng·h/mL
Cmax ([2]; mice, IV 1 mg/kg): 849 ng/mL
MRT inf ([2]; mice, IV 1 mg/kg): 0.537 h
MRT last ([2]; mice, IV 1 mg/kg): 0.515 h
Tmax ([2]; mice, IV 1 mg/kg): 4.98 min
clearance ([2]; mice, IV 1 mg/kg): 27.2 mL/min/kg
half-life ([2]; mice, IV 1 mg/kg): 31.3 min
Vd ([2]; mice, IV 1 mg/kg): 0.876 L/kg
AUC(0-inf) ([2]; mice, PO 5 mg/kg): 648 ng·h/mL
AUC(0-t) ([2]; mice, PO 5 mg/kg): 465 ng·h/mL
Cmax ([2]; mice, PO 5 mg/kg): 119 ng/mL
MRT inf ([2]; mice, PO 5 mg/kg): 4.02 h
MRT last ([2]; mice, PO 5 mg/kg): 3.42 h
Tmax ([2]; mice, PO 5 mg/kg): 190 min
bioavailability ([2]; mice, PO 5 mg/kg): 20.9%
half-life ([2]; mice, PO 5 mg/kg): 164 min
half-life (Mouse plasma stability): 1150 ± 347 min
Papp A→B (MDCK permeability): 25.8 ×10⁻⁶ cm/s
IC50 (FGFR2; [7]): ≥ 1000 nM
IC50 (FGFR2; read-out: IC50 towards FGFR2): 1870 nM

C=CC(=O)NC1CC1Nc1cc(-c2cccnc2Nc2c(Cl)c(OC)cc(OC)c2Cl)ncn1 (centres unmarked) [Compound 2]
IC50 (FGFR1; [5]): 10 to 100 nM
IC50 (FGFR3; [6]): 100 to 1000 nM
IC50 (FGFR4; [4]): ≤ 10 nM
IC50 (FGFR2; [7]): 100 to 1000 nM

C=CC(=O)N[C@H]1CC[C@H]1Nc1cc(-c2cccnc2Nc2c(Cl)c(OC)cc(OC)c2Cl)ncn1 [Compound 3]
IC50 (FGFR4; [4]): 100 to 1000 nM

C=CC(=O)N[C@H]1CCOC[C@H]1Nc1cc(-c2cccnc2Nc2c(Cl)c(OC)cc(OC)c2Cl)ncn1 [Compound 4]
IC50 (FGFR4; [4]): 10 to 100 nM

C=CC(=O)Nc1cccc(C)c1Nc1cc(-c2cccnc2Nc2c(Cl)c(OC)cc(OC)c2Cl)ncn1 [Compound 5, N-(2-((6-(2-((2,6-dichloro-3,5-dimethoxyphenyl)amino)pyridin-3-yl)pyrimidin-4-yl)amino)-3-methylphenyl)acrylamide, reference compound]
AUC(0-t) [3]: 1450 ng·h/mL
Tmax [3]: 6.67 h
bioavailability [3]: 8.09%
Hepatocyte Clin Ms (SE) (Hepatocyte): 41.7 ± 1.73 µL/min/1e6 cells
solubility [1]: poor solubility
clearance ([2]; intravenous, Table 2 summary): 14 mL/min/kg
half-life ([2]; intravenous, Table 2 summary): 900 min
bioavailability ([2]; oral, Table 2 summary): 8%
T1/2 ([2]; mice, IP 10 mg/kg): 1.23 h
AUC(0-inf) ([2]; mice, IP 10 mg/kg): 1280 ng·h/mL
AUC(0-t) ([2]; mice, IP 10 mg/kg): 1270 ng·h/mL
Cmax ([2]; mice, IP 10 mg/kg): 865 ng/mL
MRT inf ([2]; mice, IP 10 mg/kg): 1.66 h
MRT last ([2]; mice, IP 10 mg/kg): 1.57 h
Tmax ([2]; mice, IP 10 mg/kg): 15 min
AUC(0-inf) ([2]; mice, IV 5 mg/kg): 1240 ng·h/mL
AUC(0-t) ([2]; mice, IV 5 mg/kg): 896 ng·h/mL
Cmax ([2]; mice, IV 5 mg/kg): 470 ng/mL
MRT inf ([2]; mice, IV 5 mg/kg): 18.5 h
MRT last ([2]; mice, IV 5 mg/kg): 7.71 h
Tmax ([2]; mice, IV 5 mg/kg): 4.98 min
clearance ([2]; mice, IV 5 mg/kg): 13.9 mL/min/kg
half-life ([2]; mice, IV 5 mg/kg): 906 min
Vd ([2]; mice, IV 5 mg/kg): 15.3 L/kg
Cmax ([2]; mice, PO 100 mg/kg): 180 ng/mL
MRT last ([2]; mice, PO 100 mg/kg): 6.1 h
half-life (Mouse plasma stability): 221 ± 55.7 min
Papp A→B (MDCK permeability): 11.4 ×10⁻⁶ cm/s

C=CC(=O)Nc1cc(OC2CN(C)C2)ccc1Nc1cc(-c2cccnc2Nc2c(Cl)c(OC)cc(OC)c2Cl)ncn1 [Compound 6, N-[2-[[6-[2-(2,6-dichloro-3,5-dimethoxy-anilino)-3-pyridyl]pyrimidin-4-yl]amino]-5-(1-methylazetidin-3-yl)oxy-phenyl]prop-2-enamide]
IC50 (FGFR1; [5]): 100 to 1000 nM
IC50 (FGFR3; [6]): ≥ 1000 nM
IC50 (FGFR4; [4]): ≤ 10 nM
IC50 (FGFR2; [7]): 100 to 1000 nM

C=CC(=O)Nc1cc(OCC2CN(C)C2)ccc1Nc1cc(-c2cccnc2Nc2c(Cl)c(OC)cc(OC)c2Cl)ncn1 [Compound 7, N-[2-[[6-[2-(2,6-dichloro-3,5-dimethoxy-anilino)-3-pyridyl]pyrimidin-4-yl]amino]-5-[(1-methylazetidin-3-yl)methoxy]phenyl]prop-2-enamide]
IC50 (FGFR1; [5]): 100 to 1000 nM
IC50 (FGFR3; [6]): ≥ 1000 nM
IC50 (FGFR4; [4]): ≤ 10 nM
IC50 (FGFR2; [7]): 100 to 1000 nM

C=CC(=O)Nc1cc(OC2CCN(C)CC2)ccc1Nc1cc(-c2cccnc2Nc2c(Cl)c(OC)cc(OC)c2Cl)ncn1 [Compound 8, N-[2-[[6-[2-(2,6-dichloro-3,5-dimethoxy-anilino)-3-pyridyl]pyrimidin-4-yl]amino]-5-[(1-methyl-4-piperidyl)oxy]phenyl]prop-2-enamide]
IC50 (FGFR1; [5]): ≥ 1000 nM
IC50 (FGFR3; [6]): ≥ 1000 nM
IC50 (FGFR4; [4]): ≤ 10 nM
IC50 (FGFR2; [7]): 100 to 1000 nM

C=CC(=O)Nc1cc(OC2CCN(C)C2)ccc1Nc1cc(-c2cccnc2Nc2c(Cl)c(OC)cc(OC)c2Cl)ncn1 (centres unmarked) [Compound 9, N-[2-[[6-[2-(2,6-dichloro-3,5-dimethoxy-anilino)-3-pyridyl]pyrimidin-4-yl]amino]-5-(1-methylpyrrolidin-3-yl)oxy-phenyl]prop-2-enamide]
IC50 (FGFR1; [5]): 100 to 1000 nM
IC50 (FGFR3; [6]): ≥ 1000 nM
IC50 (FGFR4; [4]): ≤ 10 nM
IC50 (FGFR2; [7]): 100 to 1000 nM

C=CC(=O)Nc1cc(OC2CCOC2)ccc1Nc1cc(-c2cccnc2Nc2c(Cl)c(OC)cc(OC)c2Cl)ncn1 (centres unmarked) [Compound 10, N-[2-[[6-[2-(2,6-dichloro-3,5-dimethoxy-anilino)-3-pyridyl]pyrimidin-4-yl]amino]-5-tetrahydrofuran-3-yloxy-phenyl]prop-2-enamide]
IC50 (FGFR1; [5]): ≥ 1000 nM
IC50 (FGFR3; [6]): ≥ 1000 nM
IC50 (FGFR4; [4]): ≤ 10 nM
IC50 (FGFR2; [7]): ≥ 1000 nM

C=CC(=O)Nc1cc(OC2COC2)ccc1Nc1cc(-c2cccnc2Nc2c(Cl)c(OC)cc(OC)c2Cl)ncn1 [Compound 11, N-[2-[[6-[2-(2,6-dichloro-3,5-dimethoxy-anilino)-3-pyridyl]pyrimidin-4-yl]amino]-5-(oxetan-3-yloxy)phenyl]prop-2-enamide]
IC50 (FGFR1; [5]): ≥ 1000 nM
IC50 (FGFR3; [6]): ≥ 1000 nM
IC50 (FGFR4; [4]): ≤ 10 nM
IC50 (FGFR2; [7]): ≥ 1000 nM

C=CC(=O)Nc1cc(OCCN2CCCC2)ccc1Nc1cc(-c2cccnc2Nc2c(Cl)c(OC)cc(OC)c2Cl)ncn1 [Compound 12, N-[2-[[6-[2-(2,6-dichloro-3,5-dimethoxy-anilino)-3-pyridyl]pyrimidin-4-yl]amino]-5-(2-pyrrolidin-1-ylethoxy)phenyl]prop-2-enamide]
IC50 (FGFR1; [5]): 100 to 1000 nM
IC50 (FGFR3; [6]): ≥ 1000 nM
IC50 (FGFR4; [4]): ≤ 10 nM
IC50 (FGFR2; [7]): 100 to 1000 nM

C=CC(=O)Nc1ncn(C)c1Nc1cc(-c2cccnc2Nc2c(Cl)c(OC)cc(OC)c2Cl)ncn1 [Compound 13, N-[5-[[6-[2-(2,6-dichloro-3,5-dimethoxy-anilino)-3-pyridyl]pyrimidin-4-yl]amino]-1-methyl-imidazol-4-yl]prop-2-enamide]
IC50 (FGFR4; [4]): ≥ 1000 nM

C=CC(=O)Nc1cc(OCCN(C)C)ccc1Nc1cc(-c2cccnc2Nc2c(Cl)c(OC)cc(OC)c2Cl)ncn1 [Compound 14]
IC50 (FGFR1; [5]): ≥ 1000 nM
IC50 (FGFR3; [6]): ≥ 1000 nM
IC50 (FGFR4; [4]): ≤ 10 nM
IC50 (FGFR2; [7]): ≥ 1000 nM

C=CC(=O)Nc1cc(OCCN(CC)CC)ccc1Nc1cc(-c2cccnc2Nc2c(Cl)c(OC)cc(OC)c2Cl)ncn1 [Compound 15]
IC50 (FGFR1; [5]): ≥ 1000 nM
IC50 (FGFR3; [6]): ≥ 1000 nM
IC50 (FGFR4; [4]): ≤ 10 nM
IC50 (FGFR2; [7]): ≥ 1000 nM
